The text below walks through data of patent US20230338463A1, “ICD PEPTIDE AND USE THEREOF FOR HAVING CYTOTOXIC ACTIVITY ON CANCER CELLS” (NATIONAL TSING HUA UNIVERSITY, priority 2022, published 2023).

Non-standard residues stand in square brackets, D forms with d. Residues, ends and D or L forms follow the SMILES beside them. 2Nal = N[C@@H](Cc1ccc2ccccc2c1)C(=O)O

For data set [1], the system named is MN-11 cells. Description: DCFDA cellular ROS detection, MN-11. The class given is cell-based, murine. Conditions: MN-11, 2 × IC50, 2-hour treatment. As for the experimental part:
However, MN-11 cells were seeded at the density of 25,000 cells/well in the 96-well black plate and allowed to adhere for 24 hours. Cells were washed with a 100 µL/well of PBS to remove the RPMI 1640 medium, and incubated with 100 µL of the 25 µM DCFDA solution for 45 minutes at 37° C. in the dark condition. 100 µL/ well of PBS buffer was washed again for the removal of 25 µM DCFDA solution. The MN-11 cells were treated with Nal-P-113, Bip-P-113 and Dip-P-113 at 2× IC50 for 2 hours. Cells incubated with DMEM without phenol red was used as negative control, and the positive control was tertbutyl hydroperoxide (TBHP) diluted in the 1x Supplemented Buffer. The fluorescence intensity of cellular ROS was determined to an excitation wavelength of 485 nm and an emission wavelength of 535 nm on the Wallac VICTOR 3 Multilabel plate reader (PerkinElmer, Shelton, CT, USA).

The subject of data set [2] is OECM-1 cells (gingival epidermoid carcinoma). Conditions: human, 24 h. The source says: (§1) Three non-small cell lung cancer cell lines (H1975, A549, PC9) and two oral cancer cell lines (CGNHC9, OECM-1) were used in the present invention. H1975 is the non-small cell lung carcinoma tissue, A549 is the adenocarcinomic alveolar basal epithelial cells and PC9 is the non-small cell lung cancer with EGFR mutation. CGNHC9 and OECM-1 cell lines refer to oral squamous cell carcinoma and gingival epidermoid carcinoma respectively. The abovemetioned cell lines were derived from human origin and being cultured in the humidified incubator containing 5% CO2 at 37° C. CGNHC9 cell line was cultured in Dulbecco’s modified Eagle’s medium (GIBCO Life Technologies Corporation, NY, USA) with 10% fetal bovine serum (FBS), 2 mM L-glutamine and 1% penicillin/ streptomycin and Roswell Park Memorial Institute 1640 (RPMI 1640, GIBCO Life Technologies Corporation, NY, USA) medium with 10% fetal bovine serum (FBS), 2 mM L-glutamine and 1% penicillin/ streptomycin was used as the culture medium for the rest of the cell lines.
(§2) The anticancer activity of ICD peptides include, not limited, SEQ ID NO: 1 and its derivative peptides (SEQ ID NO: 2, SEQ ID NO: 3, SEQ ID NO: 4, and SEQ ID NO: 5) was using the 3-(4,5-Dimethyl-2-thiazolyl)-2,5-diphenyl-2H-tetrazolium bromide (MTT, Sigma Aldrich, St. Louis, MO, USA) colorimetric assay for cell viability test. The cells include, not limited, H1975, A549, PC9, CGNHC9, OECM-1, MN-11 and HFW cells/cell lines.
(§3) The cells were seeded in the 96-well plate at 5000 cells/well under the environment of humidified 5% CO2 and the temperature of 37° C. for 24 hours. The medium was removed from the well before the fresh medium containing different concentrations of ICD peptides was added and incubated for 24 hours. Medium with PBS solution was used as control group. All ICD peptides were diluted serially from 100 µM to 0.78 µM in ddH2O before adding in the medium. After 24 hours of ICD peptide treatment, fresh medium with 10% MTT solution (5 mg/mL) was incubated for additional 4 hours in advance of dissolving the formazan crystal in 100 µL DMSO (Dimethyl sulfoxide, Sigma Aldrich) solution. The calculation of cell survival rate was completed by measuring the absorbance at 570 nm using microplate reader (TECAN Sunrise ELISA Reader).
(§4) The cell survival was calculated from the treated cells relative to the control (100% viable cells) using the mean of three independent experiments and expressed as a 50% inhibitory concentration (IC50).
(§5) The percentage of cell viability was calculated using the following formula: […]
(§6) The half inhibition concentration (IC50) is the concentration required by the drug to reach fifty percent inhibition. In one embodiment, the SEQ ID NO: 1 and its derivative peptides (SEQ ID NO:2, SEQ ID NO:3, SEQ ID NO:4, SEQ ID NO: 5) was used for IC50 test via MTT colorimetric assay.

In data set [3] the test system is CGNHC9 cells (oral squamous cell carcinoma). Conditions: human, 24 h.
Excerpt: as §1, §2, §3, §4, §5, §6

Data set [4] concerns PC9 cells (non-small cell lung cancer with EGFR mutation). Conditions: human, 24 h.
Excerpt: as §1, §2, §3, §4, §5, §6

The test system of data set [5] is MN-11 cells (fibrosarcoma). As to the kind of experiment: MN-11 fibrosarcoma tumor regression, intratumoral injection. It counts as in vivo. How it is done: Female C57BL/6 wild-type mice (4–5 weeks old) were obtained from the BioLASCO Taiwan Co., Ltd (Taiwan). All mice were housed in a specific pathogen-free and controlled environment. During the experiments, female mice, weighing 18–24 g each, were kept in groups of 4 to 6 animals per cage under climate-controlled conditions, with 12 h light/dark cycles and an ambient temperature. The mice were housed in an enriched individually ventilated cage system with free access to standard rodent chow and water ad libitum. The animals were anesthetized during the experimental procedures with 2.5% isoflurane gas. The animals were monitored daily and large-tumor-bearing mice were euthanized with isoflurane. All the procedures were conducted according to the regulations of Laboratory Animal Care and Use Committee or Group Setup and Management and the law of Animal Protection. All animal experiments were approved by National Tsing Hua University (approval ID: 110016), and the protocol was approved by Institutional Animal Care and Use Committee.
Pre-cultured MN-11 cells were harvested in a DMEM medium and inoculated total of 5×10^5 cells (mixed equal volume of matrigel) into the right flank of the abdomen in C57BL/6 mice with subcutaneous injection (6 mice/group). Palpable tumors (50-75 mm^3) were intratumorally injected (i.t.) with Nal-P-113 (1 mg/50 µl saline per mouse) for 3 consecutive days. Negative control (tumor only) mice received saline only (sterile H2O with 0.9% NaCl). Tumor size was measured every 2 days using a caliper, and the volume of tumors was calculated using the following formula: Tumor size (mm^3) = 0.5× (width^2×length). Animals were terminated when the tumor exceeded 2000 mm^3. The survival rates of tumor-bearing mice were observed and recorded continuously until all animals were dead. Additionally, the following were implemented as humane endpoints: signs of unacceptable pain, infection, severe ulceration, or surgical complications.
To investigate the therapeutic potential of Nal-P-113 in vivo, MN-11 cells were subcutaneously implanted into C57BL/6 mice. After eight days post-implantation, tumor volumes reached 50-75 mm^3. Then all animals were injected intratumorally (i.t.) with 50 µl of PBS (Negative control; n=5) or […] Nal-P-113 (n=11). […] At the end of the experiments (35 days), 10 out of 11 animals were survived in the treatment group. […] Nal-P-113 treatment appeared to be nontoxic since no there were effects on the body weight and intake of the animals at the end of the experiment (FIG. 9D and FIG. 9E).

As to `CC(=O)N[C@@H](C)C(=O)N[C@@H](CCCCN)C(=O)N[C@@H](CCCNC(=N)N)C(=O)N[C@@H](Cc1ccc2ccccc2c1)C(=O)N[C@@H](Cc1ccc2ccccc2c1)C(=O)NCC(=O)N[C@@H](Cc1ccc(O)cc1)C(=O)N[C@@H](CCCCN)C(=O)N[C@@H](CCCNC(=N)N)C(=O)N[C@@H](CCCCN)C(=O)N[C@@H](Cc1ccccc1)C(=O)N[C@@H](Cc1ccc2ccccc2c1)C(N)=O` [SEQ ID NO:3, Ac-AKR Nal Nal GYKRKFNal-NH2] (Ac-AKR[2Nal][2Nal]GYKRKF[2Nal]-NH2), the “fluorescence intensity of cellular ROS (ROS production)” value in data set [1] is “did not change”. The cell viability percentage entry in data set [2], in data set [3] and in data set [4] was “lower than 20%” throughout. Also, the “toxicity (body weight and intake)” value in data set [5] (C57BL/6 mice, at the end of the experiment) is listed as “nontoxic”. In data set [5] (end of the experiments (35 days), i.t. Nal-P-113 for 3 consecutive days, n=11), the animals survived is listed as 10 out of 11. In addition, the “complete regression of the tumor” value in data set [5] (treatment group n=11, i.t.) is given as 5 animals. Besides, the tumor recurrence in data set [5] (treatment group n=11, i.t.) is reported as 6 animals.
